Measurements reported in patent publication US11376241B2, “Aryl hydrocarbon receptor (AhR) modulator compounds” (PHENEX PHARMACEUTICALS AG, priority 2017, dated 2022).

Target: T1, AhR (Homo sapiens, UniProt P35869)
T1 construct: The HepG2 CYP1A1-Luc cells do express basal luciferase activity that can be increased via potent AhR agonists or decreased via potent AhR antagonists; endogenous in cells; host or cells: HepG2 (DSMZ #ACC 180) stably carrying a human CYP1A1 promoter-firefly luciferase reporter
T1 sequence (P35869 11-848): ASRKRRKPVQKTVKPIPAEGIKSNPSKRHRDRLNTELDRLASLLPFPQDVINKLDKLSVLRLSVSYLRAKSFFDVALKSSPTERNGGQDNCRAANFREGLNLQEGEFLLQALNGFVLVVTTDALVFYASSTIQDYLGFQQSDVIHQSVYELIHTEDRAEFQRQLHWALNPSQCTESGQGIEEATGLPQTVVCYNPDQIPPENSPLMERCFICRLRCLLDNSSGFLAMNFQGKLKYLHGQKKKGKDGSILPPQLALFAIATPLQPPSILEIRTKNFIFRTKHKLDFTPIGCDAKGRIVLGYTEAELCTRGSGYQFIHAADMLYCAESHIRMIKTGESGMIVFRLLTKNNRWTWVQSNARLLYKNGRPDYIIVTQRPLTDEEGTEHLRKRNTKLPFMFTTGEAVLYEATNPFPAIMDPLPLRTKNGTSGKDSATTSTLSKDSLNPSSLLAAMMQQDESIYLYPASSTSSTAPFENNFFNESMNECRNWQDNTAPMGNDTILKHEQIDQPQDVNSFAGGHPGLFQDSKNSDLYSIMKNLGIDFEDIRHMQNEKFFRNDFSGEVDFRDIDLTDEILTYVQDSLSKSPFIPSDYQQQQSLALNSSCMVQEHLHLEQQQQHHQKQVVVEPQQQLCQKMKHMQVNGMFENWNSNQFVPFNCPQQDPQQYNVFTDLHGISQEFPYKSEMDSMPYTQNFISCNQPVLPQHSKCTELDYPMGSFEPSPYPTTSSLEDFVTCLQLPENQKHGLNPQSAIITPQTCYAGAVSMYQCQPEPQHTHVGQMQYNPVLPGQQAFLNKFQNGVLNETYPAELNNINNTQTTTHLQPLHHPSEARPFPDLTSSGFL
Test: AhR direct luciferase reporter assay in HepG2 cells (HepG2 CYP1A1-LUC)
Assay type: cell-based
Settings: 18 hours, luciferase activity, no exogenous AhR agonist or 10 nM VAF347, read-out: AhR potency (AhR antagonistic potency, IC50)
Source text: AhR direct luciferase reporter assay in HepG2 cells.
A stable cell line (HepG2 CYP1A1-LUC) was used in which part of the promoter region of the human CYP1A1 gene is stably integrated into the genome of human HepG2 hepatocytes (DSZM #ACC 180) in front of a Photinus pyralis Firefly Luciferase gene. A 1210 bp fragment comprising part of the human CYP1A1 promoter was isolated via SacI and BglII restriction digestion from Lightswitch Clone S714555 (SwitchGearGenomics) and inserted between the SacI and BglII sites in pGL4.30 (Promega #E8481) in front of the Firefly Luciferase gene. The resulting vector was linearized with NotI, transfected into HepG2 cells (DSMZ #ACC 180) and stably transfected clones selected with 250 μg/ml Hygromycin B. After repetitive rounds of subcloning and testing for robustly regulated luciferase activity after AhR agonist stimulation, a stable clonal HepG2 CYP1A1-Luc cell line was selected.
The HepG2 CYP1A1-Luc cells do express basal luciferase activity that can be increased via potent AhR agonists or decreased via potent AhR antagonists, added to the growth medium of the cells.
In typical reporter assays performed with this cell line, cells are grown in 96-well plates and AhR modulators are titrated into the growth medium in serial dilutions in RPMI-1640 Medium (Sigma #R7509) supplemented with 8.6% fetal calf serum (Sigma #F7524) and containing either no exogenous AhR agonist or 10 nM of the potent AhR agonist VAF347 (Calbiochem #182690). Cells are further cultivated for 18 hours and luciferase activities are determined from extracts of cells in buffers containing D-Luciferine and ATP using a LUMIstar Optima microplate Luminometer from BMG Labtech.

IC50 [nM]	SMILES
< 100	Cc1ccccc1-c1cc2cnc(NC(=O)c3ncnn3C)cc2[nH]1 [2/1]
100 to 1000	Cn1ncnc1C(=O)Nc1cc2[nH]c(-c3c(Cl)cccc3Cl)cc2cn1 [2/2]
< 100	Cn1ncnc1C(=O)Nc1cc2[nH]c(-c3ccccc3C(F)F)c(F)c2cn1 [2/3]
< 100	Cn1ncnc1C(=O)Nc1cc2[nH]c(-c3ccccc3C(F)F)c(Cl)c2cn1 [2/4]
100 to 1000	Cn1ncnc1C(=O)Nc1cc2[nH]c(-c3cc(C(F)F)ccc3F)cc2cn1 [2/5]
< 100	Cn1ncnc1C(=O)Nc1cc2[nH]c(-c3cc(C#N)ccc3C(F)(F)F)cc2cn1 [2/6]
> 1000	Cn1ncnc1C(=O)Nc1cc2[nH]c(-c3ccccc3C(C)(C)O)cc2cn1 [2/7]
100 to 1000	Cn1cncc1C(=O)Nc1cc2[nH]c(-c3ccccc3C(F)F)cc2cn1 [4/1]
< 100	Cn1ccnc1C(=O)Nc1cc2[nH]c(-c3ccccc3C(F)F)cc2cn1 [4/2]
< 100	Cc1ocnc1C(=O)Nc1cc2[nH]c(-c3ccccc3C(F)F)cc2cn1 [4/3]
100 to 1000	Cc1ccccc1-c1cc2cnc(NC(=O)c3ccnn3C)cc2[nH]1 [Example 1, 1-Methyl-N-(2-(o-tolyl)-1H-pyrrolo[3,2-c]pyridin-6-yl)-1H-pyrazole-5-carboxamide]
< 100	Cn1nccc1C(=O)Nc1cc2[nH]c(-c3ccccc3C(F)(F)F)cc2cn1 [Example 1/1, 1-Methyl-N-(2-(2-(trifluoromethyl)phenyl)-1H-pyrrolo[3,2-c]pyridin-6-yl)-1H-pyrazole-5-carboxamide]
< 100	Cn1ncnc1C(=O)Nc1cc2[nH]c(-c3ccccc3C(F)(F)F)cc2cn1 [Example 1/2, 1-Methyl-N-(2-(2-(trifluoromethyl)phenyl)-1H-pyrrolo[3,2-c]pyridin-6-yl)-1H-1,2,4-triazole-5-carboxamide]
< 100	O=C(Nc1cc2[nH]c(-c3ccccc3C(F)(F)F)cc2cn1)c1ccccn1 [Example 1/3, N-(2-(2-(Trifluoromethyl)phenyl)-1H-pyrrolo[3,2-c]pyridin-6-yl) picolinamide]
< 100	Cn1ncnc1C(=O)Nc1cc2[nH]c(-c3cc(F)ccc3C(F)(F)F)cc2cn1 [Example 1/4, N-(2-(5-Fluoro-2-(trifluoromethyl)phenyl)-1H-pyrrolo[3,2-c]pyridin-6-yl)-1-methyl-1H-1,2,4-triazole-5-carboxamide]
> 1000	Cn1cnnc1C(=O)Nc1cc2[nH]c(-c3ccccc3C(F)F)cc2cn1 [Example 1/5, N-(2-(2-(Difluoromethyl)phenyl)-1H-pyrrolo[3,2-c]pyridin-6-yl)-4-methyl-4H-1,2,4-triazole-3-carboxamide]
< 100	Cn1ncnc1C(=O)Nc1cc2[nH]c(-c3ccccc3C(F)F)cc2cn1 [Example 1/6, N-(2-(2-(Difluoromethyl)phenyl)-1H-pyrrolo[3,2-c]pyridin-6-yl)-1-methyl-1H-1,2,4-triazole-5-carboxamide]
< 100	Cn1cnnc1C(=O)Nc1cc2[nH]c(-c3cc(F)ccc3C(F)(F)F)cc2cn1 [Example 1/7, N-(2-(5-Fluoro-2-(trifluoromethyl)phenyl)-1H-pyrrolo[3,2-c]pyridin-6-yl)-4-methyl-4H-1,2,4-triazole-3-carboxamide]
< 100	Cn1ncnc1C(=O)Nc1cc2[nH]c(-c3cc(F)ccc3C(F)F)cc2cn1 [Example 1/8, N-(2-(2-(Difluoromethyl)-5-fluorophenyl)-1H-pyrrolo[3,2-c]pyridin-6-yl)-1-methyl-1H-1,2,4-triazole-5-carboxamide]
100 to 1000	Cn1ncnc1C(=O)Nc1cc2[nH]c(-c3ccoc3C(F)F)cc2cn1 [Example 1/9, N-(2-(2-(Difluoromethyl)furan-3-yl)-1H-pyrrolo[3,2-c]pyridin-6-yl)-1-methyl-1H-1,2,4-triazole-5-carboxamide]
< 100	Cn1ncnc1C(=O)Nc1cc2[nH]c(-c3cc(C(F)(F)F)ccc3C(F)(F)F)cc2cn1 [Example 1/10, N-(2-(2,5-Bis(trifluoromethyl)phenyl)-1H-pyrrolo[3,2-c]pyridin-6-yl)-1-methyl-1H-1,2,4-triazole-5-carboxamide]
< 100	Cn1ncnc1C(=O)Nc1cc2[nH]c(-c3cc(C4CC4)ccc3C(F)(F)F)cc2cn1 [Example 1/11, N-(2-(5-Cyclopropyl-2-(trifluoromethyl)phenyl)-1H-pyrrolo[3,2-c]pyridin-6-yl)-1-methyl-1H-1,2,4-triazole-5-carboxamide]
100 to 1000	Cn1ncnc1C(=O)Nc1cc2[nH]c(-c3cc(F)c(F)cc3C(F)F)cc2cn1 [Example 1/12, N-(2-(2-(Difluoromethyl)-4,5-difluorophenyl)-1H-pyrrolo[3,2-c]pyridin-6-yl)-1-methyl-1H-1,2,4-triazole-5-carboxamide]
< 100	CCc1ccc(C(F)(F)F)c(-c2cc3cnc(NC(=O)c4ncnn4C)cc3[nH]2)c1 [Example 1/13, N-(2-(5-Ethyl-2-(trifluoromethyl)phenyl)-1H-pyrrolo[3,2-c]pyridin-6-yl)-1-methyl-1H-1,2,4-triazole-5-carboxamide]
100 to 1000	CC(C)c1ccccc1-c1cc2cnc(NC(=O)c3ncnn3C)cc2[nH]1 [Example 2, N-(2-(2-Isopropylphenyl)-1H-pyrrolo[3,2-c]pyridin-6-yl)-1-methyl-1H-1,2,4-triazole-5-carboxamide]
100 to 1000	CN(C(=O)c1ncnn1C)c1cc2[nH]c(-c3cc(F)ccc3C(F)F)cc2cn1 [Example 3, N-(2-(2-(Difluoromethyl)-5-fluorophenyl)-1H-pyrrolo[3,2-c]pyridin-6-yl)-N,1-dimethyl-1H-1,2,4-triazole-5-carboxamide]
< 100	Cc1scnc1C(=O)Nc1cc2[nH]c(-c3ccccc3C(F)F)cc2cn1 [Example 4, N-(2-(2-(Difluoromethyl)phenyl)-1H-pyrrolo[3,2-c]pyridin-6-yl)-5-methylthiazole-4-carboxamide]
100 to 1000	Cn1ncnc1C(=O)Nc1cc2[nH]c(-c3ccccc3C(F)F)c(C#N)c2cn1 [Example 5, N-(3-Cyano-2-(2-(difluoromethyl)phenyl)-1H-pyrrolo[3,2-c]pyridin-6-yl)-1-methyl-1H-1,2,4-triazole-5-carboxamide]
